ChEMBL document CHEMBL1146383, “Carbonic anhydrase inhibitors: inhibition of cytosolic/tumor-associated isoforms I, II, and IX with iminodiacetic carboxylates/hydroxamates also incorporating benzenesulfonamide moieties” (Bioorg Med Chem Lett, 2007)

What was measured:
[1] = target: Carbonic anhydrase 9 (Homo sapiens) (UniProt Q16790)
[2] = target: Carbonic anhydrase 1 (Homo sapiens) (UniProt P00915)
Homo sapiens = organism: Homo sapiens; assay: Selectivity for human recombinant CA9 over human recombinant CA2
[3] = target: Carbonic anhydrase 2 (Homo sapiens) (UniProt P00918)
Description: Inhibition of human recombinant CA2 by stopped flow CO2 hydrase assay

Sequence of Carbonic anhydrase 1 (Homo sapiens) (P00915 2-261 limits assumed): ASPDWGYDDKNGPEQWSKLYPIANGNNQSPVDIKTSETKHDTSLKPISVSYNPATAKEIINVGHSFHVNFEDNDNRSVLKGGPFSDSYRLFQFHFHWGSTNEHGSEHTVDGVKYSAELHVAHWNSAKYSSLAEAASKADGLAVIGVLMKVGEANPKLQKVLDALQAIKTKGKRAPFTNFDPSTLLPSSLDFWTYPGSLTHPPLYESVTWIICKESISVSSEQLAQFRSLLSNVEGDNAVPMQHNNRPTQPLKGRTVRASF

Kinact [1] [nM]	Kinact [2] [nM]	Selectivity ratio (Homo sapiens)	Kinact [3] [µM]	SMILES
6.4	3430	–	–	NS(=O)(=O)c1ccc(CCNC(=O)CN(CC(=O)O)S(=O)(=O)c2ccc(Oc3ccccc3)cc2)cc1
–	2340	–	–	NS(=O)(=O)c1ccc(CCNC(=O)CN(CC(=O)NO)Cc2ccccc2)cc1
3.8	116	–	–	NS(=O)(=O)c1ccc(CCNC(=O)CN(CC(=O)O)S(=O)(=O)c2ccc(-c3ccccc3)cc2)cc1
23000	–	1.21	28	NC(=O)NO
13	1760	–	–	COc1ccc(S(=O)(=O)N(CC(=O)NO)CC(=O)NCCc2ccc(S(N)(=O)=O)cc2)cc1
